What was measured:
[1] = maximum absorption wavelength of the dichroic material from ultraviolet visible spectrum in solution; format: physicochemical; conditions: solution in a good solvent, 380 to 800 nm
Description: Here, the maximum absorption wavelength (nm) of the dichroic material is acquired from an ultraviolet visible spectrum in a wavelength range of 380 to 800 nm measured by a spectrophotometer using a solution prepared by dissolving the dichroic material in a good solvent.

[2] = compatibility between liquid crystal compound and dichroic material (phase separation observed on hot stage under polarizing microscope); format: physicochemical; set-up: key: Compatible: in a case where phase separation is not observed, it is defined as “compatible”; Incompatible: in a case where phase separation is observed, it is defined as “incompatible”; conditions: for Second dichroic material Compatible or incompatible: with the liquid crystal compound of the same composition (same example); for First dichroic material Compatible or incompatible: with the liquid crystal compound of the same composition
Description: Here, the compatibility between the liquid crystal compound and the dichroic material can be confirmed by the following method.
First, two polarizers of an optical microscope (ECLIPSE E600 POL, manufactured by Nikon Corporation) are arranged so as to be orthogonal to each other, and a sample stand is set between the two polarizers.
Next, a sample composition obtained by mixing the liquid crystal compound contained in the polarizer-forming composition and a certain kind of dichroic material at a mass ratio is cast on glass, and this glass is set on a hot stage placed on the sample stand.
Next, the phase separation state of the sample is observed by raising or lowering the temperature of the hot stage in a range of higher than or equal to a higher temperature between the melting point of the liquid crystal compound and the melting point of the dichroic material and lower than or equal to a lower temperature between the isotropic phase transition temperature of the liquid crystal compound and the isotropic phase transition temperature of the dichroic material.
In this operation, in a case where phase separation is not observed, it is defined as “compatible”. Further, in a case where phase separation is observed, it is defined as “incompatible”.
Further, the compatibility between the liquid crystal compound and the first dichroic material or the second dichroic material in the polarizer-forming composition was confirmed by the method described above, and the results thereof are listed in Table 1.

[3] = first listed first dichroic material
[4] = second listed first dichroic material

C=CC(=O)OCCCCCCCCCOc1ccc(N=Nc2cc3sc(N=Nc4ccc(N(CC)CCOC(=O)C=C)cc4)nc3s2)cc1 [Example C1]
maximum absorption wavelength [1]: 592 nm
Second dichroic material Compatible or incompatible [2]: Incompatible

C=CC(=O)OCCCCCCCCCCOc1ccc(N=Nc2cc3sc(N=Nc4ccc(N(CC)CCOC(=O)C=C)cc4)nc3s2)cc1 [Example C2]
maximum absorption wavelength [1]: 592 nm
Second dichroic material Compatible or incompatible [2]: Incompatible

C=CC(=O)OCCCCCCCCCOc1ccc(N=Nc2cc3sc(N=Nc4ccc(N(CC)CCOC(=O)C=C)cc4C)nc3s2)cc1 [Example C3]
maximum absorption wavelength [1]: 605 nm
Second dichroic material Compatible or incompatible [2]: Incompatible

C=CC(=O)OCCN(CC)c1ccc(N=Nc2nc3sc(N=Nc4ccc(OCCCCCCCCCOC(=O)CC)cc4)cc3s2)cc1 [Example C4]
maximum absorption wavelength [1]: 592 nm
Second dichroic material Compatible or incompatible [2]: Incompatible

C=CC(=O)OCCN(CC)c1ccc(N=Nc2nc3sc(N=Nc4ccc(OCCCCCCOC(C)=O)cc4)cc3s2)cc1 [Example C5]
maximum absorption wavelength [1]: 592 nm
First dichroic material Compatible or incompatible [2, 3]: Compatible
First dichroic material Compatible or incompatible [2, 4]: Compatible

FC(F)(F)c1ccc(N=Nc2ccc(N=Nc3ccc(N4CCCC4)cc3)cc2)cc1 [Example M1]
maximum absorption wavelength [1]: 502 nm
First dichroic material Compatible or incompatible [2, 4]: Compatible

CCCCc1ccc(N=Nc2ccc(N=Nc3ccc(N(CC)CCC#N)cc3)cc2)cc1 [Example M2]
maximum absorption wavelength [1]: 457 nm
First dichroic material Compatible or incompatible [2, 4]: Compatible

C=CC(=O)CCCN(CC)c1ccc(N=Nc2ccc(N=Nc3ccc(CCCC)cc3)cc2)cc1 [Example M3]
maximum absorption wavelength [1]: 442 nm
First dichroic material Compatible or incompatible [2, 4]: Compatible

C=CC(=O)OCCCCOc1ccc(N=Nc2ccc(N=Nc3ccc(N=Nc4ccc(OCCCCOC(=O)C=C)cc4)cc3C)cc2)cc1 [Example Y1]
maximum absorption wavelength [1]: 413 nm
First dichroic material Compatible or incompatible [2, 3]: Compatible

C=CC(=O)OCCCCOc1ccc(N=Nc2ccc(N=Nc3ccc(N=Nc4ccc(OCCCCOC(=O)C=C)cc4O)cc3)c(C)c2)cc1 [Example Y2]
maximum absorption wavelength [1]: 445 nm
First dichroic material Compatible or incompatible [2, 3]: Compatible

C=CC(=O)OCCCCCOc1ccc(N=Nc2ccc(N=Nc3ccc(N=Nc4ccc(OCCCCCOC(=O)C=C)cc4)cc3C)cc2)cc1 [Example Y3]
maximum absorption wavelength [1]: 413 nm
First dichroic material Compatible or incompatible [2, 3]: Compatible

C=CC(=O)OCCCCCCCCCCCCOc1ccc(N=Nc2ccc(N=Nc3ccc(N=Nc4ccc(OCCCCCCCCCCCCOC(=O)C=C)cc4O)cc3)c(C)c2)cc1 [Example Y4]
maximum absorption wavelength [1]: 445 nm
Second dichroic material Compatible or incompatible [2]: Incompatible

C=CC(=O)OCCCCCCOc1ccc(N=Nc2ccc(N=Nc3ccc(N=Nc4ccc(OCCCCCCOC(=O)C=C)cc4)cc3C)cc2)cc1 [Example Y5]
maximum absorption wavelength [1]: 413 nm
First dichroic material Compatible or incompatible [2, 3]: Compatible

C=CC(=O)OCCCCCCCCOc1ccc(N=Nc2ccc(N=Nc3ccc(N=Nc4ccc(OCCCCCCCCOC(=O)C=C)cc4)cc3C)cc2)cc1 [Example Y6]
maximum absorption wavelength [1]: 413 nm
First dichroic material Compatible or incompatible [2, 3]: Compatible

C=CC(=O)OCCCCCCCCCCCOc1ccc(N=Nc2cc3sc(NC(=O)c4ccc(CCCC)cc4)nc3s2)cc1 [Example Y7]
maximum absorption wavelength [1]: 443 nm
Second dichroic material Compatible or incompatible [2]: Incompatible

C=CC(=O)CC(C)OC(=O)CCC(=O)OCCc1ccc(N=Nc2cc3sc(NC(=O)c4ccc(CCCC)cc4)nc3s2)cc1 (stereo not drawn) [Example Y8]
maximum absorption wavelength [1]: 430 nm
First dichroic material Compatible or incompatible [2, 3]: Compatible

Source: patent US11921308B2, “Polarizer and image display device” (FUJIFILM Corporation, priority 2018, dated 2024)
